We go through 1 molecule from patent US7915050B2, “Regulatory genes for plant differentiation and growth, and use of the same” (National University Corporation Nagoya University, priority 2005, dated 2011).

One may read the Kd as the equilibrium constant for the complex coming apart.

Molecules are shown by their SMILES.

In test [1] the target is T1, GID1 (Oryza sativa subsp. japonica, UniProt Q6L545).
T1 construct: GST (tag of vector pGEX-4T) (N); made in house
Briefly: Competition of various GAs in the binding of the 3H-GA4 derivative to GID1 protein. Also noted: species or system rice. On the procedure:
In the gibberellin-binding assay, [1,2,16,17-^3H4]16,17-dihydro-GA4 was used as a labeled GA4. In vitro GA-binding assays were carried out using previous methods with some modifications (Nakajima, M. et al., Biochem. Biophys. Res. Comm. 241, 782-786 (1997)). The purified recombinant GID1 protein (400 pmol) was dissolved in 300 μl of binding buffer [20 mM Tris-HCl (pH 7.6), 5 mM 2-mercaptoethanol, and 0.1 M NaCl], and incubated with 100 μl of ^3H4-16,17-dihydroGA4 (6 pmol) for two hours at 25° C., either in the absence of non-labeled GA4 (total binding) or in the presence of 833-fold excess non-labeled GA4 (total non-specific binding). Then, 0.1 ml of the reaction mixture was loaded onto a NAP-5 column (Amersham Biosciences, Piscataway, N.J.). The eluate of the binding buffer (0.6 ml) was discarded, the subsequent eluate (0.2 ml) was collected, and the radioactivity was measured. The specific binding activity, reflecting the number of displaceable GA binding sites, was calculated by subtracting the amount of nonspecific binding from the amount of total binding. The same as above can also be carried out for other GAs.
Thus, it was postulated that, like GID2, GID1 is involved in the degradation of SLR1, or that GID1 functions upstream of SLR1 in GA signaling. […] Based on this phenotypic characteristic of gid1, it was predicted that GID1 was involved in GA perception. To verify this possibility, the interactions between GID1 and radioisotope-labeled GA was directly examined using non-equilibrium gel filtration (Nakajima, M. et al., Biochem. Biophys. Res. Comm. 241, 782-786 (1997)). […] Next, ligand specificity of GID1 was tested by using competition between the tritiated GA4 derivative and various GAs. The concentration of each GA that is required for a 50% inhibition (IC50) of the binding of the tritiated GA4 derivative to GID1 is shown in Table 1. […] The IC50 value for each of these GAs was well consistent with their physiological activity.

Test [2] has as its target T2, AtGID1c in the presence of RGA (Arabidopsis thaliana, UniProt Q940G6).
T2 construct: made in house; host or cells: E. coli (stated for AtGID1)
T2 sequence (Q940G6 1-344): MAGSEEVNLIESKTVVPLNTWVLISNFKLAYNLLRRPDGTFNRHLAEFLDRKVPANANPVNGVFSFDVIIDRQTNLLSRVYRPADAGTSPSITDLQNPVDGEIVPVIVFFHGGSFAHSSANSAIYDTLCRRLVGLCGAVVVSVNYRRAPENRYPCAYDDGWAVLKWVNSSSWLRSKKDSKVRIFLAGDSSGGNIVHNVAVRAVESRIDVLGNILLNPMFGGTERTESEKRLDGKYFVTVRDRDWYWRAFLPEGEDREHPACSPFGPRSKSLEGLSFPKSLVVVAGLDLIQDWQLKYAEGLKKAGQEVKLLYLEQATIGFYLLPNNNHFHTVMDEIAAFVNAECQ
T2 sequence (Q9SLH3 1-587 partner): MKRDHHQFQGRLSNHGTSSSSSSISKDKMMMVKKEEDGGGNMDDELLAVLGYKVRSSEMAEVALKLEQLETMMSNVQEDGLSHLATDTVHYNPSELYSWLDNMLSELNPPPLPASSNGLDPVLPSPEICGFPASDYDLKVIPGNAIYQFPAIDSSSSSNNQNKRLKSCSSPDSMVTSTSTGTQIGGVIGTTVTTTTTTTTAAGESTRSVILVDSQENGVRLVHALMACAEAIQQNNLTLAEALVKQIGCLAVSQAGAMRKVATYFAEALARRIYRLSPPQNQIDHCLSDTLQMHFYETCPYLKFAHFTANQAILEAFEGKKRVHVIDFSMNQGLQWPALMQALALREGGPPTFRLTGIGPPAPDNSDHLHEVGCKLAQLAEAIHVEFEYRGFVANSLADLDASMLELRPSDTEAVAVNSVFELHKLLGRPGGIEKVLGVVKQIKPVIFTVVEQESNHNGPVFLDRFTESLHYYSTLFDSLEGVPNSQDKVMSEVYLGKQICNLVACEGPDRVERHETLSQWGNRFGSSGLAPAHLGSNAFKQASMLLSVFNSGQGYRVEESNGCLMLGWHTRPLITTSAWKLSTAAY
Briefly: Scatchard analysis of AtGID1c-GA binding in the presence of RGA. On the procedure:
Panel A) depicts AtGID1-AtDELLA interaction in the presence of GA in two types of yeast hybrid (Y2H) assays. Each AtGID1 was used as a bait while AtDELLA was a prey. GA4 (10^−5 M) was added to the medium. The bars indicates β-galactosidase activity when o-nitrophenol-β-D-galactopyranoside was used as a substrate (Assay B). The growth of each transformant in the defined medium for 2 days (Assay A) is shown beneath of each bar graph. The experiment was carried out in quadruplicate. The SD value shown in the figure was determined from three measurements. Panel B) depicts the dose response in AtGID1-RGA interaction in Assay B of Y2H. GA4 (10^−5 to 10^−9 M) was added to the medium. The experiment was conducted in […]. The SD value shown in the figure was determined from three measurements. Panel C) depicts the results of an evaluation of the in vitro GA-binding potency of AtGID1 using AtDELLA. […] GAI (G) or RGA (R) was added, and then the GA-binding activity in each reaction mixture was measured according to the standard method. […] The SD value was determined from three measurements. […]
Next, whether AtDELLAs exert some kind of influence on the GA-binding activity of AtGID1s was examined in vitro. After labeled 16,17-dihydro-GA4 and AtGID1s were combined, AtDELLAs were added to the solutions, and the GA-binding activity was measured. […]

T1 sequence (Q6L545 whole entry): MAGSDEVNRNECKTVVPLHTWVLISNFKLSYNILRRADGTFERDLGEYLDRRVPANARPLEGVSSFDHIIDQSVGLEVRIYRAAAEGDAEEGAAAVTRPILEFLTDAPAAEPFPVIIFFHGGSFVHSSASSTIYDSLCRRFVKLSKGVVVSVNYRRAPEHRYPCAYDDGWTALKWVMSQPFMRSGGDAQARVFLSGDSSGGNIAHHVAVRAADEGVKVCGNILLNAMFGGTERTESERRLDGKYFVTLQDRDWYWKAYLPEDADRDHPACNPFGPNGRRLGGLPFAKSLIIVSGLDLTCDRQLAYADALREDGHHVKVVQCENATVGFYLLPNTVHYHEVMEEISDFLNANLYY

Turning to `CC1C[C@]23C[C@H]1CCC2[C@]12CC[C@H](O)[C@](C)(C(=O)O1)[C@H]2[C@@H]3C(=O)O` (stereo partly shown) [H2-GA4, 16,17-dihydro-GA4], the “affinity of recombinant GID1 for the GA (in words)” value in test [1] is “high affinity”. Besides, in test [1] (competition with tritiated GA4 derivative for binding to recombinant GID1, read-out: IC50 (concentration required for 50% inhibition)), the IC50 is 1 µM. Besides, the “Rel % (relative value)” value in test [1] (relative competition, GA4 given as 100) was “(20) %”. Moreover, the Kd in test [2] was 0.012 µM.
